The test system of one series is S. aureus. Set-up: method as in previously reported S. aureus sensitive PET tracers. The settings on record: S. aureus infection; ref previously reported S. aureus sensitive PET tracers; cited from earlier work.
A further series relates to Gram-positive bacteria. Description: In vitro uptake of 18F-tracers across the Gram-positive panel. The class given is cell-based. The settings on record: panel of Gram-positive pathogens; FLT/FCT except E. faecalis; FMT versus FNT. The protocol: (§1) In vitro evaluation of ^18F-tracers was conducted according to our established procedure. Briefly, bacteria were incubated overnight at 37 °C, subcultured into a fresh medium at an initial OD600 of 0.05, and then allowed to reach the mid log phase (OD600 ∼ 0.4). The cultures were subsequently incubated with ^18F-tracers (final concentration: 0.1 MBq/mL) at 37 °C for 90 min. Subsequently, 300 μL aliquots of these cultures were centrifuged at 13,200 rpm for 6 min. The resulting pellets were washed with 300 μL of phosphate-buffered saline (PBS). The radioactivity of the pellets and supernatants was measured using a gamma counter. Uptake values were normalized to colony-forming units (CFUs).

The subject of series [1] is K. pneumoniae. Description: In vitro uptake of 18F-tracers by bacteria. The format is cell-based, Klebsiella pneumoniae. The protocol:
as §1

For series [2], the system named is K. pneumoniae. Description: PET/CT in K. pneumoniae pneumonia murine model. The class given is in vivo, mice. The protocol:
Given promising low background signals in uninfected mice, we further evaluated [^18F]-FNT and [^18F]-FMT in two different clinically relevant mouse models of lung and muscle infections. […] PET scanning was performed at 24 h postintranasal bacterial installation (Figure A). […] The ROI-derived infected/uninfected lung ratios of [^18F]-FDS, [^18F]-FMT, and [^18F]-FNT were approximately 3.2, 6.1, and 5.9-fold, respectively (Figure C), also supported by the ex vivo infected/uninfected lung ratio of [^18F]-FDS (∼1.6-fold), [^18F]-FMT (∼5.7-fold), and [^18F]-FNT (∼5.7-fold) (Figure D). Post-PET scans, infected lungs were harvested to determine colony forming units (CFUs). No significant differences in bacterial counts were observed among [^18F]-FDS, [^18F]-FMT, and [^18F]-FNT (Figure E). To confirm radiotracer specificity, we also evaluated mice inoculated with 10x heat-killed K. pneumoniae into lungs (Supporting Information Figure S5A–C).
(§2) All animal procedures were conducted in accordance with UCSF institutional guidelines and were approved by the Institutional Animal Care and Use Committee (IACUC). Female CBA/J mice (9 and 11 weeks old) were used for the study. Pulmonary infection and bacterial myositis models were established based on previously published protocols. , For pulmonary infection, 50 μL of K. pneumoniae (5 × 10^6 CFU) or 10× heat-killed K. pneumoniae were administered intranasally under anesthesia 24 h prior to imaging using PET. After PET scans, infected lungs were homogenized in PBS and plated on LB agar. Plates were incubated overnight at 37 °C to quantify the bacterial burden. For the bacterial myositis model, mice were intramuscularly injected with either 1 × 10^6 CFUs of live S. aureus (MSSA or MRSA) or 1 × 10^7 CFUs of heat-killed bacteria (50 μL) into the left and right deltoid muscles, respectively, 10 h prior to imaging using PET. Immediately following all imaging studies, target tissues were harvested, and radioactivity was measured using a gamma counter.
μPET/CT imaging was conducted using a nanoScan μPET/CT instrument (PET123S/CT1512, Mediso). Mice were anesthetized with 2% isoflurane/oxygen for intravenous administration of ^18F-tracers (∼5 MBq in 150 μL) via tail vein and maintained during data acquisition. PET data of uninfected mice were acquired in the list mode for 90 min, starting immediately after ^18F-tracer administration, followed by a CT scan. The PET data were reconstructed into three-dimensional volumes and coregistered with CT images using manufacturer-provided software in 53 dynamic frames (15 × 2 s, 6 × 5 s, 6 × 10 s, 4 × 30 s, 6 × 30 s, and 16 × 300 s). PET data of infected mice were acquired for 20 min, starting at 70 min postinjection of ^18F-tracer (mid time 80 min), followed by a CT scan. The list mode PET data were reconstructed into three-dimensional volumes in a single static frame. All PET scans were corrected for ^18F decay, dead time, and random coincidences and reconstructed into a 160 × 160 × 184 matrix with voxel size 0.8 mm using a three-dimensional ordered subject expectation maximization (OSEM) algorithm (40 iterations, 1 subset). Both attenuation and scatter corrections were applied to PET reconstructions using the coregistered CT. ROIs were drawn manually around the brain, lungs, liver, kidney, and urinary bladder using Amide software to generate image-derived TACs. For the estimation of blood pool radioactivity over time, ROIs were drawn on the left atrium. To estimate the plasma half-life of tracers, the TAC of the blood pool was fitted to a two-compartment model using a biexponential decay function: C t(t) = Ae ^–αt + Be ^ ‑βt , where C t(t) is the tracer concentration (% IDcc^–1) at time (t), A and B are the intercepts, and α and β are the distribution and elimination rate constants, respectively. , Quantitative uptake values are expressed as % IDcc^–1, representing the percent of the total injected dose per cubic centimeter. […]

Series [3] can be described thus: Dynamic PET/CT and ex vivo biodistribution in uninfected mice. Conditions: uninfected mice. As to the method:
To assess the effect of [^18F]-FDS glycosylation on tissue uptake in vivo, we performed dynamic PET/CT scans for 90 min after the intravenous injection of [^18F]-FNT, [^18F]-FMT, and [^18F]-FDS in uninfected mice, followed by ex vivo analysis.
(§3) μPET/CT imaging was conducted using a nanoScan μPET/CT instrument (PET123S/CT1512, Mediso). Mice were anesthetized with 2% isoflurane/oxygen for intravenous administration of ^18F-tracers (∼5 MBq in 150 μL) via tail vein and maintained during data acquisition. PET data of uninfected mice were acquired in the list mode for 90 min, starting immediately after ^18F-tracer administration, followed by a CT scan. The PET data were reconstructed into three-dimensional volumes and coregistered with CT images using manufacturer-provided software in 53 dynamic frames (15 × 2 s, 6 × 5 s, 6 × 10 s, 4 × 30 s, 6 × 30 s, and 16 × 300 s). PET data of infected mice were acquired for 20 min, starting at 70 min postinjection of ^18F-tracer (mid time 80 min), followed by a CT scan. The list mode PET data were reconstructed into three-dimensional volumes in a single static frame. All PET scans were corrected for ^18F decay, dead time, and random coincidences and reconstructed into a 160 × 160 × 184 matrix with voxel size 0.8 mm using a three-dimensional ordered subject expectation maximization (OSEM) algorithm (40 iterations, 1 subset). Both attenuation and scatter corrections were applied to PET reconstructions using the coregistered CT. ROIs were drawn manually around the brain, lungs, liver, kidney, and urinary bladder using Amide software to generate image-derived TACs. For the estimation of blood pool radioactivity over time, ROIs were drawn on the left atrium. To estimate the plasma half-life of tracers, the TAC of the blood pool was fitted to a two-compartment model using a biexponential decay function: C t(t) = Ae ^–αt + Be ^ ‑βt , where C t(t) is the tracer concentration (% IDcc^–1) at time (t), A and B are the intercepts, and α and β are the distribution and elimination rate constants, respectively. , Quantitative uptake values are expressed as % IDcc^–1, representing the percent of the total injected dose per cubic centimeter. For the S. aureus myositis model, identical volume ROIs were drawn corresponding to the peak uptake of [^18F]-FNT at the live S. aureus inoculated site and heat-killed S. aureus inoculated site, respectively.

The subject of the next series is Enterococcus faecalis. Description: In vitro uptake of 18F-tracers by bacteria. The class given is cell-based. The settings on record: E. faecalis; 37 °C, 90 min. The protocol:
as §1

In another series the test system is MRSA. Description: PET/CT in MRSA myositis murine model. Conditions: MRSA myositis. The class given is in vivo, mice. As to the method: We next compared [^18F]-FNT and [^18F]-FMT PET in a S. aureus myositis model. […] To compare the in vivo detection sensitivity of [^18F]-FNT and [^18F]-FMT in a MRSA myositis model, we injected the left deltoid with live MRSA and the right deltoid with 10x heat-killed MRSA, respectively (Figure B).
as §2, with “For the bacterial myositis model, mice were intramuscularly injected with either 1 × 10^6 CFUs of live S. aureus (MSSA or MRSA) or 1 × 10^7 CFUs of heat-killed bacteria (50 μL) into the left and right deltoid muscles, respectively, 10 h prior to imaging using PET.” left out
as §3

For series [4] the following is noted: in vivo; cited from earlier work.
Setting [5] is: blood pool TAC, two-compartment fit.

The source of these data is PMC12728616, “Regioselective Glycosylation of Fluorine-18-Labeled Sorbitol for Enhanced Bacterial Detection In Vivo Using PET” (JACS Au, 2025).

Turning to `[11CH3]SCC[C@@H](N)C(=O)O` [D-[11C]Met], the target-to-nontarget ratio in the series with S. aureus was about 10 fold. Regarding `OC[C@@H](O)[C@@H](O[C@@H]1O[C@H](CO)[C@@H](O)[C@H](O)[C@H]1O)[C@H](O)[C@@H]([18F])CO` [[18F]FCT, 2-deoxy-2-[18F]fluoro-D-cellobiotol], in the series with Gram-positive bacteria, the “in vitro uptake in Gram-positive bacteria” value is on record as “negligible uptake”. Further, in the series with K. pneumoniae [1], the in vitro uptake entry is “poorly taken up”. With `OC[C@@H](O)[C@@H](O)[C@H](O)[C@H]([18F])CO` [[18F]FMtl], the target-to-nontarget ratio in the series on S. aureus was about 4 fold. As to `N[C@H](CC[11C](N)=O)C(=O)O` [D-[5-11C]-Gln], the target-to-nontarget ratio in the series on S. aureus is given as about 2.3 fold. For the compound `Nc1ccc([11C](=O)O)cc1` [[11C]PABA], in the series with S. aureus, the target-to-nontarget ratio is reported as about 28 fold. On to `[11CH3][C@@H](N)C(=O)O` [D-[3-11C]Ala], for which the target-to-nontarget ratio with S. aureus is reported as about 4 fold. On to `[2H]C([2H])([18F])[C@@]([2H])(N)C(=O)O` [D-[18F]FAla-d3], for which the target-to-nontarget ratio in the series on S. aureus was about 2.4 fold.

`OCC1OC(OC2C(CO)OC(O)C([18F])C2O)C(O)C(O)C1O` (stereo not drawn) [[18F]FDM]: in the series with S. aureus, the target-to-nontarget ratio is recorded as about 6 fold. Consider `OC[C@@H](O)[C@@H](O)[C@H](O)[C@@H]([18F])CO` [[18F]FDS, 2-deoxy-2-[18F]fluoro-D-sorbitol, reference compound], for which the “ex vivo infected/uninfected lung ratio” value in the series on K. pneumoniae [2] (ex vivo gamma counting after PET) is listed as about 1.6 fold. In the series with K. pneumoniae [2] (in vivo PET, 80 min postinjection (mid time), 24 h after intranasal K. pneumoniae), the “ROI-derived infected/uninfected lung ratio” value is reported as “approximately 3.2 fold”. Moreover, the “in vitro uptake in Gram-positive bacteria” value in the series on Gram-positive bacteria is “not taken up”. For the same compound, in series [3] (i.v.), the “area under the curve (AUC0→90min) in bladder” value is 36165.8 ± 3961.5 % IDcc^–1·min and the “area under the curve (AUC0→90min) in liver” value was found to be 289.4 ± 21.3 % IDcc^–1·min. For the same compound, in series [3] (i.v., dynamic PET 90 min), the “peak uptake (Cmax) in bladder” value is given as 525.5 ± 37.0 % IDcc^–1, the “peak uptake (Cmax) in kidneys” value was found to be 71.3 ± 9.7 % IDcc^–1 and the “peak uptake (Cmax) in liver” value stood at 28.6 ± 5.0 % IDcc^–1. In series [3] (setting [5]), the “elimination half-life (T1/2β)” value turned out to be 18.74 min and the “plasma distribution half-life (T1/2α)” value came to 0.43 min. Moreover, the in vitro uptake entry in the series on Enterococcus faecalis is “accumulated”. As to `OCC1OC(OC2C(O)C(CO)OC(O)C2[18F])C(O)C(O)C1O` (stereo not drawn) [[18F]FSK, reference compound], the “ratio of live/heat-killed S. aureus inoculated sites, in vivo” value with MRSA (PET 80 min postinjection (mid time)) is 28 fold. Moreover, the “ratio of live/heat-killed S. aureus inoculated sites, ex vivo” value in the series on MRSA (ex vivo analysis) is given as 17 fold. Further, the target-to-nontarget ratio with S. aureus is given as about 7 fold. In the case of `OC[C@H]1OC(O)[C@H]([18F])[C@@H](O)[C@@H]1O` (stereo partly drawn) [[18F]FDG], in series [4], the known effective dose is reported as 0.017 mSv/MBq. As for `N[C@H](C[18F])C(=O)O` [D-[18F]FAla], the target-to-nontarget ratio in the series on S. aureus is about 2 fold. Turning to `OCCOCc1ccc(-c2noc(-c3ccc(OCC[18F])c(C(F)(F)F)c3)n2)cc1` [[18F]TZ4877], the target-to-nontarget ratio with S. aureus is on record as about 1.3 fold. In the case of `Nc1ccc(C(=O)O)c([18F])c1` [2-[18F]F-PABA], the target-to-nontarget ratio in the series on S. aureus was about 8 fold.
